Data as given in US20230104936A1, “TRPML MODULATORS” (Casma Therapeutics, Inc., priority 2019, published 2023).

Tested on: TFEB
Test: TFEB nuclear translocation assay, HeLa wt cells
Type: cell-based
Conditions: Homo sapiens, HeLa, 2 h, 2 hrs compound treatment, Table 1 does not say HeLa wt or TRPML1 KO
Method in brief: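 Using 20× epifluorescence of fixed, anti-TFEB-stained HeLa wt cells treated 2 hrs with compound, nuclear versus perinuclear ring intensity was quantified over four fields per well, yielding AC50 values.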

Compared with `COCC1(C)CCN(c2ccccc2NS(=O)(=O)c2ccc(C(C)(C)C)cc2)CC1` [Compound A-483, 4-tert-butyl-N-{2-[4-(methoxymethyl)-4-methylpiperidin-1-yl]phenyl}benzene-1-sulfonamide], `COCC1(C)CCN(c2ccccc2NS(=O)(=O)c2ccc(CC(C)(C)C)cc2)CC1` [Compound A-489, 4-(2,2-dimethylpropyl)-N-{2-[4-(methoxymethyl)-4-methylpiperidin-1-yl]phenyl}benzene-1-sulfonamide] is higher in AC50: ≤ 2000 nM for the first, 2010 to 8000 nM for the second.

Compared with `CN(C)S(=O)(=O)c1ccc(S(=O)(=O)Nc2ccccc2N2CCCN(C3CC3)CC2)cc1` [Compound A-484, N4-[2-(4-cyclopropyl-1,4-diazepan-1-yl)phenyl]-N1,N1-dimethylbenzene-1,4-disulfonamide], `CN(C)S(=O)(=O)c1ccc(S(=O)(=O)Nc2ccccc2N2CCN(CC3CCCO3)CC2)cc1` (centres unmarked) [Compound A-495, N1,N1-dimethyl-N4-(2-{4-[(oxolan-2-yl)methyl]piperazin-1-yl}phenyl)benzene-1,4-disulfonamide] is higher in AC50: 2010 to 8000 nM for the first, 8010 to 9990 nM for the second.

First: CC(C)(C)C(=O)N1CCN(c2ccccc2NS(=O)(=O)Cc2cccc(Br)c2)CC1 [Compound A-485, 1-(3-bromophenyl)-N-{2-[4-(2,2-dimethylpropanoyl)piperazin-1-yl]phenyl}methanesulfonamide]
Second: CC(C)(C)C(=O)N1CCN(c2ccccc2NS(=O)(=O)Cc2ccc(Br)cc2F)CC1 [Compound A-488, 1-(4-bromo-2-fluorophenyl)-N-{2-[4-(2,2-dimethylpropanoyl)piperazin-1-yl]phenyl}methanesulfonamide]
The AC50 of the first is lower: 2010 to 8000 nM for the first, 8010 to 9990 nM for the second.

First: Cc1ccc(CS(=O)(=O)Nc2ccccc2N2CCN(C(=O)C(C)(C)C)CC2)cc1C [Compound A-486, 1-(3,4-dimethylphenyl)-N-{2-[4-(2,2-dimethylpropanoyl)piperazin-1-yl]phenyl}methanesulfonamide]
Second: CN(C)S(=O)(=O)c1ccc(S(=O)(=O)Nc2ccccc2N2CCC(COC(C)(C)C)CC2)cc1 [Compound A-494, N4-(2-{4-[(tert-butoxy)methyl]piperidin-1-yl}phenyl)-N1,N1-dimethylbenzene-1,4-disulfonamide]
The AC50 of the first is higher: 2010 to 8000 nM for the first, ≤ 2000 nM for the second.

`CN(C)S(=O)(=O)c1ccc(S(=O)(=O)Nc2ccccc2N2CCN(C(=O)C34CCCCC3C4)CC2)cc1` (centres unmarked) [Compound A-487, N4-[2-(4-{bicyclo[4.1.0]heptane-1-carbonyl}piperazin-1-yl)phenyl]-N1,N1-dimethylbenzene-1,4-disulfonamide] and `COCCCC1CCN(c2ccccc2NS(=O)(=O)c2ccc(S(=O)(=O)N(C)C)cc2)CC1` [Compound A-496, N4-{2-[4-(3-methoxypropyl)piperidin-1-yl]phenyl}-N1,N1-dimethylbenzene-1,4-disulfonamide] cannot be ordered by AC50: ≤ 2000 nM for the first, ≤ 2000 nM for the second.

Compared with `COCC1(C)CCN(c2ccccc2NC(C)c2ccc(S(=O)(=O)N(C)C)cc2)CC1` (centres unmarked) [Compound A-490, 4-[1-({2-[4-(methoxymethyl)-4-methylpiperidin-1-yl]phenyl}amino)ethyl]-N,N-dimethylbenzene-1-sulfonamide], `COCC1(C)CCN(c2ccccc2C(C)S(=O)(=O)c2ccc(S(=O)(=O)N(C)C)cc2)CC1` (centres unmarked) [Compound A-491, 4-(1-{2-[4-(methoxymethyl)-4-methylpiperidin-1-yl]phenyl}ethanesulfonyl)-N,N-dimethylbenzene-1-sulfonamide] is lower in AC50: ≥ 10000 nM for the first, ≤ 2000 nM for the second.

`CN1CCC2(CCN(c3ccccc3NS(=O)(=O)c3ccc(S(C)(=O)=O)cc3)CC2)c2ccccc21` [Compound A-492, 4-methanesulfonyl-N-(2-{1′-methyl-2′,3′-dihydro-1′H-spiro[piperidine-4,4′-quinolin]-1-yl}phenyl)benzene-1-sulfonamide] and `COCC1(C)CCN(c2ccccc2CS(=O)(=O)c2ccc(S(=O)(=O)N(C)C)cc2)CC1` [Compound A-493, 4-({2-[4-(methoxymethyl)-4-methylpiperidin-1-yl]phenyl}methanesulfonyl)-N,N-dimethylbenzene-1-sulfonamide] cannot be ordered by AC50: ≤ 2000 nM for the first, ≤ 2000 nM for the second.
